Source: patent publication US9428452B2, “Compounds” (Glaxo Group Limited, priority 2012, dated 2016)
Marks after values point to notes of the source that are not given here.

Test system: IL-22 mRNA expression
Assay: Ex-vivo human skin model, IL-22 mRNA expression
Assay type: cell-based
Conditions: for Percentage of inhibition of IL-22 mRNA expression: Th17 cytokine cocktail 24 h, RT-PCR
Experimental: Fresh ex vivo human skin from healthy bariatric patients, that underwent abdominoplasty skin removal, was de-fatted and dermatomed at 750 μm. Dermatomed skin was incubated twice for 5-10 minutes at room temperature in PBS containing a antibiotic/antimycotic solution: Fungizone (Invitrogen #15290018), PSG (Fisher #BW17718R) and Gentamicin (Invitrogen #15750060). Skin was treated aseptically from this point on. Individual skin samples were obtained by 10 mm punch biopsy and placed in a 0.4 μm PCF membrane transwell (Millicell #PIHP01250) containing 30 μl of a 64% bovine collagen solution. After a 30 minute incubation at 37° C., which allows the collagen solution time to set, skin samples on transwells were transferred to 6-well plates (1 sample per well) and the lower chamber filled with 1 ml complete media (Cornification Media)+hydrocortisone (final concentration of 0.4 μg/ml) with or without test compounds at 10 μM (day −3) and allowed to rest overnight (16-18 h) at 37° C. Next, media was aspirated from the lower chamber, replaced with 1 ml complete media without hydrocortisone and incubated at 37° C. for 1 h. This constituted a ‘wash’ step. Following the hydrocortisone washout, media was again aspirated from the lower chamber and replaced with 1.0 ml complete media without hydrocortisone with or without GSK compounds at 10 μM (day −2). Cultures were incubated at 37° C. in a humidified chamber and media was refreshed one more day (day-1). The following day (day-0), cultures were stimulated for 24 h with a freshly made Th17 cytokine cocktail (CD3, 1 μg/ml, CD28, 2 μg/ml, IL-1b, 10 ng/ml, IL-6, 5 ng/ml, TGFb, 1 ng/ml, IL-21, 10 ng/ml, anti-IL-4, 1 μg/ml and anti-INFg, 1 μg/ml) with or without test compounds at 10 μM. Upon harvest (day +1), skin samples were minced with a razor blade and transferred to 1.5 ml RNAse-free tubes with 1 ml RNAlater solution until later analysis by RT-PCR (stored at −80 C).
Total RNA was isolated from about 30-40 mg of tissue using Qiagen's (Cat #74106) Mini RNA Isolation kit. Briefly, tissue was homogenized in the Precellys-24 machine using 300 μL of RLT buffer supplemented with 1% 2-Beta-Mercapto-Ethanol at 6300 rpm for 30 seconds for 6 cycles with a 2-minute ice break. 600 μL of water containing Proteinase K was added to the homogenate and digested at 55 C for 15 minutes. Digested tissue was spun down for 3 minutes at 10,000×g and the supernantant was used for RNA isolation using Qiagen's RNeasy mini columns according to manufacturer's protocol. 100 ng of RNA was used as template in a 20 μL PCR volume using Applied Biosciences RNA-to-CT 1 Step kit (AB Catalog #4392938) as well as the specific TaqMan probe for each gene to be quantified. Life Technologies FAM labeled Probes Catalog Numbers are as follows: ACTb=Hs01060665_g1, IL-17A=Hs00174383_m1, IL-17F=Hs00369400_m1, IL-22=Hs01574154_m1. All probes used (except for ACTb) expand an Exon. Applied Biosciences' Master Mix has a ROX dye internal control. OneStepPlus PCR machine was used for both the RT step and the 40 amplification cycles. RNA levels of gene of interest's relative expression were calculated using the Delta Delta CT formula.
First delta: Normalized to ACTb gene expression
Second delta: Normalized to sample 13 (Day 0+DMSO) for the gene of interest.

CCc1ccc(N(CC(C)C)S(=O)(=O)c2ccc([C@@H](O)CN3CCOCC3)c(CO)c2)cc1 [Example E126, N-(4-ethylphenyl)-4-(1-hydroxy-2-morpholinoethyl)-3-(hydroxymethyl)-N-isobutylbenzenesulfonamide]
Percentage of inhibition of IL-22 mRNA expression (Skin Donor 1, compound 10 μM): 67% * | Percentage of inhibition of IL-22 mRNA expression (Skin Donor 2, compound 10 μM): 58% | Percentage of inhibition of IL-22 mRNA expression (Skin Donor 3, compound 10 μM): 60% | Percentage of inhibition of IL-22 mRNA expression (Skin Donor 4, compound 10 μM): 58% * | gene transcription of il22 (result in words) (four different donors, compound 10 μM): inhibited
